Results as given in PubChem BioAssay AID330 (DTP/NCI, 2004).
“And” between values parts separate entries of the source, which are not always exact repeats. Identical values can stand only once. Toxic doses and inconclusive results are not listed.

Test system: P388 leukemia ip, CD2F1 mice, survival T/C
Test: NCI In Vivo Anticancer Drug Screen. Data for tumor model P388 Leukemia (intraperitoneal) in CD2F1 (CDF1) mice
Details: endpoint: median survival time, higher = longer survival
Method in brief: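 Mice carrying the transplanted tumor received test compound or vehicle. Survival was recorded in each group, and the value is the treated-group measurement divided by that of the vehicle-treated control group.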

[1] = dose: 100.0 mg/kg/injection, schedule: Q04DX002 (ip), vehicle: saline with Tween-80
[2] = dose: 50.0 mg/kg/injection, schedule: Q01DX009 (ip), vehicle: Klucel (hydroxypropylcellulose) (HPC)
[3] = dose: 100.0 mg/kg/injection, schedule: Q01DX009 (ip), vehicle: Klucel (hydroxypropylcellulose) (HPC)
[4] = dose: 200.0 mg/kg/injection, schedule: Q01DX009 (ip), vehicle: Klucel (hydroxypropylcellulose) (HPC)
[5] = dose: 60.0 mg/kg/injection, schedule: Q01DX005 (ip), vehicle: saline with Tween-80
[6] = dose: 240.0 mg/kg/injection, schedule: Q01DX005 (ip), vehicle: saline with Tween-80
[7] = dose: 50.0 mg/kg/injection, schedule: Q01DX009 (ip), vehicle: saline with Tween-80
[8] = dose: 100.0 mg/kg/injection, schedule: Q01DX009 (ip), vehicle: saline with Tween-80
[9] = dose: 200.0 mg/kg/injection, schedule: Q01DX009 (ip), vehicle: saline with Tween-80
[10] = dose: 50.0 mg/kg/injection, schedule: Q01DX005 (ip), vehicle: Klucel (hydroxypropylcellulose) (HPC)
[11] = dose: 100.0 mg/kg/injection, schedule: Q01DX005 (ip), vehicle: Klucel (hydroxypropylcellulose) (HPC)
[12] = dose: 200.0 mg/kg/injection, schedule: Q01DX005 (ip), vehicle: Klucel (hydroxypropylcellulose) (HPC)
[13] = dose: 100.0 mg/kg/injection, schedule: Q04DX003 (ip), vehicle: saline with Tween-80
[14] = dose: 50.0 mg/kg/injection, schedule: Q01DX005 (ip), vehicle: saline with Tween-80
[15] = dose: 100.0 mg/kg/injection, schedule: Q01DX005 (ip), vehicle: saline with Tween-80

With `COc1cc2c(/C=N/Nc3ccccc3[N+](=O)[O-])c(Cl)[nH]c2cc1C` the T/C (dose: 50.0 mg/kg/injection, schedule: Q01DX001 (ip), vehicle: Klucel (hydroxypropylcellulose) (HPC)) was 107 % of control, the T/C (dose: 100.0 mg/kg/injection, schedule: Q01DX001 (ip), vehicle: Klucel (hydroxypropylcellulose) (HPC)) was 98 % of control and 87 % of control and the T/C (dose: 200.0 mg/kg/injection, schedule: Q01DX001 (ip), vehicle: Klucel (hydroxypropylcellulose) (HPC)) was 98 % of control and 87 % of control. The T/C (dose: 400.0 mg/kg/injection, schedule: Q01DX001 (ip), vehicle: Klucel (hydroxypropylcellulose) (HPC)) was 90 % of control.
For `O=P(CCCCBr)(NCc1ccccc1)c1ccccc1` (stereo not given), the T/C (dose: 100.0 mg/kg/injection, schedule: Q04DX003 (ip), vehicle: Klucel (hydroxypropylcellulose) (HPC)) was 105 % of control and the T/C (dose: 200.0 mg/kg/injection, schedule: Q04DX003 (ip), vehicle: Klucel (hydroxypropylcellulose) (HPC)) was 117 % of control.
With `COc1ccc(/C=N/SC(c2ccccc2)(c2ccccc2)c2ccccc2)cc1` the T/C [1] was 111 % of control, the T/C (dose: 200.0 mg/kg/injection, schedule: Q04DX002 (ip), vehicle: saline with Tween-80) was 99 % of control and the T/C (dose: 400.0 mg/kg/injection, schedule: Q04DX002 (ip), vehicle: saline with Tween-80) was 92 % of control.
`O=[N+]([O-])c1ccc(/C=C/C=C/c2ccc(Cl)c(S(=O)(=O)F)c2)c(Cl)c1` was tested, and the T/C (dose: 100.0 mg/kg/injection, schedule: Q01DX009 (ip), vehicle: saline sonified) was 95 % of control, the T/C (dose: 200.0 mg/kg/injection, schedule: Q01DX009 (ip), vehicle: saline sonified) was 95 % of control and the T/C (dose: 400.0 mg/kg/injection, schedule: Q01DX009 (ip), vehicle: saline sonified) was 91 % of control.
`COc1ccc2c(c1)-c1nn(CCO)c(-c3ccccn3)c1CC2` was tested, and the T/C [2] was 109 % of control, the T/C [3] was 106 % of control and the T/C [4] was 106 % of control.
For `Cc1cc2c(=O)cc(-c3ccccc3)oc2c(C(=O)O)c1C`, the T/C (dose: 30.0 mg/kg/injection, schedule: Q01DX005 (ip), vehicle: saline with Tween-80) was 103 % of control, the T/C [5] was 114 % of control and 118 % of control and the T/C [6] was 161 % of control.
In the case of `CCc1cc(CC)c(-c2ccco2)c(COC(=O)NC)c1`, the T/C [7] was 101 % of control, the T/C [8] was 101 % of control and the T/C [9] was 106 % of control.
In the case of `[O-][N+](CCO)(CCO)c1ncnc2nc[nH]c12`, the T/C (dose: 50.0 mg/kg/injection, schedule: Q01DX005 (ip), vehicle: suspension in saline) was 102 % of control, the T/C (dose: 100.0 mg/kg/injection, schedule: Q01DX005 (ip), vehicle: suspension in saline) was 106 % of control and the T/C (dose: 200.0 mg/kg/injection, schedule: Q01DX005 (ip), vehicle: suspension in saline) was 102 % of control.
For `Cc1oc2ccccc2c(=O)c1C(=O)O`, the T/C [10] was 99 % of control, the T/C [11] was 100 % of control and the T/C [12] was 101 % of control.
For `COc1cc(C[C@H]2[C@H]([C@H](O)c3ccc4c(c3)OCO4)C(=O)O[C@@H]2CO)cc(OC)c1OC`, the T/C (dose: 5.0 mg/kg/injection, schedule: Q04DX002 (ip), vehicle: saline with Tween-80) was 105 % of control, the T/C (dose: 10.0 mg/kg/injection, schedule: Q04DX002 (ip), vehicle: saline with Tween-80) was 102 % of control and the T/C (dose: 20.0 mg/kg/injection, schedule: Q04DX002 (ip), vehicle: saline with Tween-80) was 102 % of control.
With `O=c1c2c([nH]c3c1c1[nH]c4c(c(=O)c1c1[nH]c5c(c(=O)c31)CCCC5)CCCC4)CCCC2` the T/C (dose: 25.0 mg/kg/injection, schedule: Q04DX003 (ip), vehicle: saline with Tween-80) was 104 % of control, the T/C (dose: 50.0 mg/kg/injection, schedule: Q04DX003 (ip), vehicle: saline with Tween-80) was 95 % of control and the T/C [13] was 87 % of control and 95 % of control.
`N#CCCSC(=S)N1CCCC1=O` was tested, and the T/C [14] was 103 % of control, the T/C [15] was 104 % of control and the T/C (dose: 200.0 mg/kg/injection, schedule: Q01DX005 (ip), vehicle: saline with Tween-80) was 114 % of control.
With `COc1cc(Br)cc(C(=O)N2CCc3ccccc32)c1OC` the T/C (dose: 25.0 mg/kg/injection, schedule: Q01DX009 (ip), vehicle: other) was 99 % of control, the T/C (dose: 50.0 mg/kg/injection, schedule: Q01DX009 (ip), vehicle: other) was 96 % of control and the T/C (dose: 100.0 mg/kg/injection, schedule: Q01DX009 (ip), vehicle: other) was 96 % of control. The T/C (dose: 200.0 mg/kg/injection, schedule: Q01DX009 (ip), vehicle: other) was 96 % of control and the T/C (dose: 400.0 mg/kg/injection, schedule: Q01DX009 (ip), vehicle: other) was 87 % of control.
In the case of `C/C([O-])=C(/c1nc(-c2ccc([N+](=O)[O-])o2)no1)[n+]1cc(C)ccc1C`, the T/C (dose: 6.25 mg/kg/injection, schedule: Q01DX009 (ip), vehicle: saline with Tween-80) was 92 % of control, the T/C (dose: 12.5 mg/kg/injection, schedule: Q01DX009 (ip), vehicle: saline with Tween-80) was 94 % of control and the T/C (dose: 25.0 mg/kg/injection, schedule: Q01DX009 (ip), vehicle: saline with Tween-80) was 97 % of control. For the same molecule, the T/C [7] was 94 % of control.
In the case of `C[CH2][Sn]1([CH2]C)[O]C(=O)[O][Sn]([CH2]C)([CH2]C)[O]1`, the T/C (dose: 3.12 mg/kg/injection, schedule: Q01DX005 (ip), vehicle: Klucel (hydroxypropylcellulose) (HPC)) was 122 % of control and the T/C (dose: 6.25 mg/kg/injection, schedule: Q01DX005 (ip), vehicle: Klucel (hydroxypropylcellulose) (HPC)) was 119 % of control.
For `CN1CCN(CC2C(=O)C3CCC2C3)CC1` (stereo not given), the T/C [14] was 93 % of control and the T/C [15] was 101 % of control.
With `O=C1C(c2ccccc2)=C(c2ccccc2)C(=O)N1CCN1CCCC1` the T/C [5] was 105 % of control, the T/C (dose: 120.0 mg/kg/injection, schedule: Q01DX005 (ip), vehicle: saline with Tween-80) was 110 % of control and the T/C [6] was 108 % of control.
In the case of `CC(C)(C)C(=O)Nc1ccc(C(C)(C)C)cc1C(O)(C(F)(F)F)C(F)(F)F`, the T/C [3] was 92 % of control and the T/C [4] was 88 % of control.
In the case of `COc1cc2cc(-c3ccc(Cl)c(Cl)c3)[n+](C)cc2cc1OC`, the T/C (dose: 12.5 mg/kg/injection, schedule: Q01DX009 (ip), vehicle: saline) was 106 % of control, the T/C (dose: 25.0 mg/kg/injection, schedule: Q01DX009 (ip), vehicle: saline) was 94 % of control and the T/C (dose: 50.0 mg/kg/injection, schedule: Q01DX009 (ip), vehicle: saline) was 98 % of control.
With `COC(=O)NC1(NC(=O)OC)NC(=O)c2ccccc2N1` the T/C (dose: 25.0 mg/kg/injection, schedule: Q01DX005 (ip), vehicle: DMSO) was 98 % of control and the T/C (dose: 50.0 mg/kg/injection, schedule: Q01DX005 (ip), vehicle: DMSO) was 100 % of control.
`CC(NC(=O)OCC1c2ccccc2-c2ccccc21)C(=O)O` (stereo not given) was tested, and the T/C [10] was 103 % of control, the T/C [11] was 98 % of control and the T/C [12] was 96 % of control.
In the case of `COc1ccc(-n2c(C)nc3ccccc3c2=O)cc1CN(CCCl)CCCl`, the T/C (dose: 25.0 mg/kg/injection, schedule: Q04DX002 (ip), vehicle: saline with Tween-80) was 97 % of control, the T/C (dose: 50.0 mg/kg/injection, schedule: Q04DX002 (ip), vehicle: saline with Tween-80) was 109 % of control and the T/C [1] was 100 % of control.
With `CC(=O)Nc1ccc(Br)c(NC(C)=O)n1` the T/C [13] was 104 % of control, the T/C (dose: 200.0 mg/kg/injection, schedule: Q04DX003 (ip), vehicle: saline with Tween-80) was 104 % of control and the T/C (dose: 400.0 mg/kg/injection, schedule: Q04DX003 (ip), vehicle: saline with Tween-80) was 109 % of control.
`O=C(c1ccccc1)c1cnc2ccccc2c1` was tested, and the T/C [10] was 101 % of control, the T/C [11] was 101 % of control and the T/C [12] was 104 % of control.
`O=C(/C=C/c1cccs1)c1ccc(Nc2ccnc3cc(Cl)ccc23)cc1` was tested, and the T/C (dose: 100.0 mg/kg/injection, schedule: Q01DX001 (ip), vehicle: saline with Tween-80) was 94 % of control, the T/C (dose: 200.0 mg/kg/injection, schedule: Q01DX001 (ip), vehicle: saline with Tween-80) was 98 % of control and the T/C (dose: 400.0 mg/kg/injection, schedule: Q01DX001 (ip), vehicle: saline with Tween-80) was 94 % of control.
`O=C(O)c1c(-c2ccccc2)cnc2ccccc12` was tested, and the T/C [7] was 95 % of control, the T/C [8] was 89 % of control and the T/C [9] was 97 % of control.
In the case of `CC1=NCc2nnn(Cc3ccccc3)c2N1`, the T/C [2] was 100 % of control, the T/C [3] was 95 % of control and the T/C [4] was 103 % of control.
